Results on 18 compounds are retold here after US10710951B2, “Pharmaceutical composition containing verbenone derivative for treating or preventing neurodegenerative disease” (KOREA UNIVERSITY RESEARCH AND BUSINESS FOUNDATION, priority 2012, dated 2020).

Series [1] relates to cortical neurons. Nature of the series: Oxygen-glucose deprivation (OGD)/reoxygenation neuronal injury, LDH release. In kind it is cell-based. Conditions: rat cortical neurons, FIG. 1. The procedure:
(§1) Cortical neurons (5×10^5 cells/ml) were isolated from fetal SD rats (16-17 days). Specifically, brain cortex was cut, and cells were isolated from the tissue by repeated trituration using a Pasteur pipette in buffer (Hanks' Balanced Salt Solution, HBSS). The cell suspension (1.8×10^3 cells/mm^2) was dispensed on a plate pretreated with poly-D-lysine ([…])/laminin ([…]). The cells were placed in 10% FBS-containing NBM medium, and incubated in a […]/5% CO2 atmosphere at 37° C. After 15-16 days of the incubation, the experiment was performed.
In order to induce hypoxic-ischemic symptoms in vitro, the incubated cells were placed in an anoxic chamber (partial oxygen pressure <2 mmHg). The cells were incubated glucose-free DMEM while being bubbled with an anaerobic gas mixture (95% N2 and 5% CO2) for 30 minutes to remove residual oxygen, and were incubated at 37° C. for 90 minutes for oxygen deprivation. After 90 minutes, the exposed solution was replaced with 25 mmol/L glucose-containing DMEM medium to stop the OGD reaction, and the cells were restored to normal oxygen conditions. Control cells not exposed to OGD were incubated in glucose (25 mmol/L)-containing DMEM medium provided with an aerobic gas mixture (95% air and 5% CO2). The cells were treated with each sample 30 minutes before, and during the entire period of OGD/re-oxygenation.
(§2) In order to measure cell injury or cell death, the amount of LDH released into the medium was measured using a cell viability measurement kit (Sigma-Aldrich, St. Louis, Mo.). Cell viability was expressed as the percentage of LDH relative to the total cellular LDH level measured in sister cultures lysed by freezing-thawing after the experiment.

Series [2] relates to cortical neurons. The series can be described thus: NMDA-induced excitotoxicity, LDH release. Set-up: dose or concentration left out as unconfirmed. The format is cell-based, SD rats. Conditions: cultured cortical neuronal cells; sample 30 min before NMDA; lower than MK-801; FIG. 2. The method, then: as §1
After incubation on the plate for 15-18 days, the cortical neurons were exposed to NMDA ([…]) in a solution (Mg^2+-free Earle's balanced salt solution (EBSS); containing 1.8 mM CaCl2 and 10 mM glycine) for 10 minutes. After exposure, the cells were washed with MgSO4-containing EBSS solution, and incubated in 25 mmol/L glucose-containing DMEM medium in a 5% CO2 incubator at 37° C. 30 Minutes before treatment with NMDA, the cells were treated with each sample […].
as §2

A short description of series [3]: DPPH assay (ability to scavenge nitrogen radicals). Set-up: DPPH assay % inhibition: concentration or dose not given beside the values. The settings on record: relative to vitamin C (Equation 1). The procedure: The samples were mixed with DPPH (23.6 μg/ml, in ethanol), and incubated in dark at 37° C. for 30 minutes. The DPPH absorbance reduced by each sample was measured at 517 nm. Vitamin C (Sigma-Aldrich, St. Louis, Mo.) was used as a control, and the DPPH inhibition value (%) was calculated using the following equation: Scavenging activity (%)=[Absmax(Vit.C)−Abssample]/[Absmax(Vit.C)−Absmin(Vit.C)]×100. Equation 1
(§3) The antioxidant activities of the verbenone derivatives of the present invention were measured by the following two different chemical reactions: (1) a single electron transfer-based assay that is a […] [DPPH] assay that measures a decrease in DPPH acting as a free radical generator and a termination probe; and (2) a hydrogen atom transfer assay that is an oxygen radical absorbance capacity [[…]] assay that measures the competitive reaction kinetics of a peroxyl radical generator (AAPH; 2,2′-azobis-(2-methylpropionamide)-dihydrochloride) and each sample acting as an antioxidant for oxidizable fluorescent probe (fluorescein).

A short description of series [4]: Oxygen radical absorbance capacity (ORAC) assay. Set-up: ORAC assay TE25 (trolox equivalents): dose or concentration left out as unconfirmed. The settings on record: for ORAC assay TE25 (trolox equivalents): net AUC sample / net AUC trolox. The method, then: An ORAC assay was performed as disclosed in the literature (Huang, D. et al., J. Agric. Food Chem., 53, 1841-56, 2005).
AAPH (60 mM) and fluorescein (50 nM) were prepared in buffer (75 mM phosphate buffer, pH7.4) without a sample or a sample or a standard (Trolox). Each of the samples and the standard was suspended in a solution of 7% RMCD (randomly methylated beta-cyclodextrin) in 50% acetone. RMCD was used to increase the solubility of oil-soluble samples. Each sample was sufficiently mixed with fluorescein solution (66 nM, 190 μl) by shaking for 5 seconds. After incubation at 37° C. for 10 minutes, AAPH (500 mM, 30 μl) was quickly added to each sample, and a decrease in the fluorescence was measured using a fluorescence microplate reader (Ex=485 nm, Em=530 nm; SpectraMax GeminiEM, Molecular Devices, Sunnyvale, Calif.) at 37° C. at 5-min intervals for 9 hours. To quantify the activity of scavenging peroxyl radicals, AUC (area-under-the-curve) was calculated according to the following equation 2, and net AUC was calculated according to the following equation 3, and the TE (trolox equivalents) of each sample was calculated according to the following equation 4 based on a standard curve of net AUC plotted according to an increase in trolox concentration. AUC=(0.5+f1/f0+f2/f0+f3/f0+ . . . +fn−2/f0+fn−1/f0+fn/f0)×5, Equation 2
wherein f0 is the first fluorescence at 0 min and time I. Net AUC=AUCsample−AUCblank. Equation 3 TE(trolox equivalents) of each sample=[netAUCsample […]]/[net AUCtrolox […]]. Equation 4
as §3

Structures are written as SMILES.

With `CC1(C)[C@@H]2C[C@H]1C(C=Cc1ccc(O)cc1)=CC2=O` [Compound 3a, (1S,5R)-4-(4-hydroxystyryl)-6,6-dimethylbicyclo[3.1.1]hept-3-en-2-one], the “neuronal injury induced by OGD (LDH release)” value in the series on cortical neurons [1] (OGD/reoxygenation, comparable to MK801) is “significantly reduced neuronal injury”. Also, the cytotoxicity entry in the series with cortical neurons [1] was “showed no cytotoxicity”. In addition, the NMDA-induced neuronal injury entry in the series with cortical neurons [2] was “significantly reduced NMDA-induced neuronal injury”. For the same compound, the “DPPH assay % inhibition” value in series [3] is given as 19.11 ± 0.67%. Moreover, in series [4], the “ORAC assay Net AUC” value came out at 153.98 ± 1.68 and the “ORAC assay TE25 (trolox equivalents)” value is recorded as 3.43 ± 0.04.
On to `COc1cc(O)ccc1C=CC1=CC(=O)[C@H]2C[C@@H]1C2(C)C` [Compound 3b, (1S,5R)-4-(4-hydroxy-2-methoxystyryl)-6,6-dimethylbicyclo[3.1.1]hept-3-en-2-one], for which the “DPPH assay % inhibition” value in series [3] is listed as 38.13 ± 5.62%. Moreover, in series [4], the “ORAC assay Net AUC” value amounted to 106.48 ± 1.89 and the “ORAC assay TE25 (trolox equivalents)” value is 2.37 ± 0.04.
Taken in the same sequence, the figures for `CC1(C)[C@@H]2C[C@H]1C(C=Cc1ccc(O)c(Br)c1)=CC2=O` [Compound 3d, (1S,5R)-4-(3-bromo-4-hydroxystyryl)-6,6-dimethylbicyclo[3.1.1]hept-3-en-2-one] were 29.45 ± 2.41%, 168.12 ± 5.24 and 3.74 ± 0.12.
The like results for `COc1cc(O)cc(OC)c1C=CC1=CC(=O)[C@H]2C[C@@H]1C2(C)C` [Compound 3e, (1S,5R)-4-(4-hydroxy-2,6-dimethoxystyryl)-6,6-dimethylbicyclo[3.1.1]hept-3-en-2-one] were, in that order, 55.80 ± 7.52%, 166.26 ± 6.05 and 3.70 ± 0.13.
For the compound `CC1(C)[C@@H]2C[C@H]1C(C=Cc1cccc(O)c1)=CC2=O` [Compound 3g, (1S,5R)-4-(3-hydroxystyryl)-6,6-dimethylbicyclo[3.1.1]hept-3-en-2-one], in series [4], the “ORAC assay Net AUC” value is reported as 73.74 ± 3.86 and the “ORAC assay TE25 (trolox equivalents)” value is recorded as 1.64 ± 0.09.
With `CC1(C)[C@@H]2C[C@H]1C(C=Cc1ccccc1O)=CC2=O` [Compound 3h, (1S,5R)-4-(2-hydroxystyryl)-6,6-dimethylbicyclo[3.1.1]hept-3-en-2-one], the “DPPH assay % inhibition” value in series [3] was 4.64 ± 0.60%. Further, in series [4], the “ORAC assay Net AUC” value is 98.77 ± 2.53 and the “ORAC assay TE25 (trolox equivalents)” value worked out at 2.20 ± 0.06.
For the compound `COc1ccc(C=CC2=CC(=O)[C@H]3C[C@@H]2C3(C)C)c(O)c1` [Compound 3i, (1S,5R)-4-(2-hydroxy-4-methoxystyryl)-6,6-dimethylbicyclo[3.1.1]hept-3-en-2-one], the NMDA-induced neuronal injury result in the series on cortical neurons [2] was “significantly reduced NMDA-induced neuronal injury”. The “DPPH assay % inhibition” value in series [3] is listed as 51.21 ± 3.83%. Further, in series [4], the “ORAC assay Net AUC” value was found to be 136.87 ± 3.24 and the “ORAC assay TE25 (trolox equivalents)” value was 3.05 ± 0.07.
As to `CC1(C)[C@@H]2C[C@H]1C(C=Cc1ccccc1)=CC2=O` [Compound 4a, (1S,5R)-6,6-dimethyl-4-styrylbicyclo[3.1.1]hept-3-en-2-one], in series [4], the “ORAC assay Net AUC” value is 27.73 ± 0.74 and the “ORAC assay TE25 (trolox equivalents)” value came out at 0.61 ± 0.01.
Taken in the same sequence, the figures for `CC1(C)[C@@H]2C[C@H]1C(C=Cc1ccc(F)cc1)=CC2=O` [Compound 4b, (1S,5R)-4-(4-fluorostyryl)-6,6-dimethylbicyclo[3.1.1]hept-3-en-2-one] were 26.15 ± 1.26 and 0.62 ± 0.02.
The like results for `COc1ccc(C=CC2=CC(=O)[C@H]3C[C@@H]2C3(C)C)cc1` [Compound 4c, (1S,5R)-4-(4-methoxystyryl)-6,6-dimethylbicyclo[3.1.1]hept-3-en-2-one] were, in that order, 38.06 ± 2.00 and 0.79 ± 0.01.
Taken in the same sequence, the figures for `CC1(C)[C@@H]2C[C@H]1C(C=Cc1ccc(-c3ccccc3)cc1)=CC2=O` [Compound 4d, (1S,5R)-4-(2-(biphenyl-4-yl)vinyl)-6,6-dimethylbicyclo[3.1.1]hept-3-en-2-one] were 26.75 ± 1.27 and 0.56 ± 0.01.
Take `COc1ccc(C=CC2=CC(=O)[C@H]3C[C@@H]2C3(C)C)cc1OC` [Compound 4f, (1S,5R)-4-(3,4-dimethoxystyryl)-6,6-dimethylbicyclo[3.1.1]hept-3-en-2-one]: in series [4], the “ORAC assay Net AUC” value came to 39.35 ± 1.67 and the “ORAC assay TE25 (trolox equivalents)” value came out at 0.88 ± 0.04.
The like results for `COc1cc(C=CC2=CC(=O)[C@H]3C[C@@H]2C3(C)C)cc(OC)c1` [Compound 4g, (1S,5R)-4-(3,5-dimethoxystyryl)-6,6-dimethylbicyclo[3.1.1]hept-3-en-2-one] were, in that order, 45.28 ± 0.62 and 1.01 ± 0.01.
Take `COc1ccc(OC)c(C=CC2=CC(=O)[C@H]3C[C@@H]2C3(C)C)c1` [Compound 4h, (1S,5R)-4-(2,5-dimethoxystyryl)-6,6-dimethylbicyclo[3.1.1]hept-3-en-2-one]: in series [4], the “ORAC assay Net AUC” value stood at 32.44 ± 1.54 and the “ORAC assay TE25 (trolox equivalents)” value was found to be 0.72 ± 0.03.
The like results for `COc1ccc(Br)cc1C=CC1=CC(=O)[C@H]2C[C@@H]1C2(C)C` [Compound 4i, (1S,5R)-4-(5-bromo-2-methoxystyryl)-6,6-dimethylbicyclo[3.1.1]hept-3-en-2-one] were, in that order, 32.96 ± 1.03 and 0.73 ± 0.02.
In the case of `CC1(C)[C@@H]2C[C@H]1C(/C=C/c1ccccn1)=CC2=O` [Compound 5a, (1S,5R)-6,6-dimethyl-4-((E)-2-(pyridin-2-yl)vinyl)bicyclo[3.1.1]hept-3-en-2-one], the NMDA-induced neuronal injury result in the series with cortical neurons [2] is “significantly reduced NMDA-induced neuronal injury”. Moreover, in series [4], the “ORAC assay Net AUC” value was 23.51 ± 0.79 and the “ORAC assay TE25 (trolox equivalents)” value was 0.52 ± 0.02.
In the case of `CC1(C)[C@@H]2C[C@H]1C(/C=C/c1cccnc1)=CC2=O` [Compound 5b, (1S,5R)-6,6-dimethyl-4-((E)-2-(pyridin-3-yl)vinyl)bicyclo[3.1.1]hept-3-en-2-one], in series [4], the “ORAC assay Net AUC” value is 22.93 ± 0.61 and the “ORAC assay TE25 (trolox equivalents)” value turned out to be 0.51 ± 0.01.
In the case of `CC1(C)[C@@H]2C[C@H]1C(/C=C/c1ccncc1)=CC2=O` [Compound 5c], in series [4], the “ORAC assay Net AUC” value turned out to be 22.51 ± 0.34 and the “ORAC assay TE25 (trolox equivalents)” value is recorded as 0.50 ± 0.01.
